Assays:
[1] = target: T1, rice OsPYL2 + Arabidopsis AtHAB1 (Oryza sativa subsp. japonica, UniProt Q5Z8S0); test: AlphaScreen assay: promotion of the interaction of rice OsPYL2 with Arabidopsis HAB1; format: binding, rice (OsPYL2); Arabidopsis thaliana (HAB1); conditions: FIG. 13b; 6×His-SUMO-tagged rice OsPYL2, Biotin-tagged Arabidopsis HAB1 (aa 172-511), 100 nM each; pH 7.4; 1.5 h room temperature
T1 construct: made in house; host or cells: E. coli BL21 (DE3)
T1 sequence (Q5Z8S0 1-207): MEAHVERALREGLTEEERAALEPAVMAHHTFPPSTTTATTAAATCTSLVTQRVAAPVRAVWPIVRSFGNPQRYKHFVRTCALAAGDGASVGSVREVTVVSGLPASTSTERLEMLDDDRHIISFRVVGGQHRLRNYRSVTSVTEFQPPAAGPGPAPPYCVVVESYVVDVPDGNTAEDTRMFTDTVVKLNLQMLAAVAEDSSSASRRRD
T1 sequence (Q9CAJ0 172-511 partner limits assumed): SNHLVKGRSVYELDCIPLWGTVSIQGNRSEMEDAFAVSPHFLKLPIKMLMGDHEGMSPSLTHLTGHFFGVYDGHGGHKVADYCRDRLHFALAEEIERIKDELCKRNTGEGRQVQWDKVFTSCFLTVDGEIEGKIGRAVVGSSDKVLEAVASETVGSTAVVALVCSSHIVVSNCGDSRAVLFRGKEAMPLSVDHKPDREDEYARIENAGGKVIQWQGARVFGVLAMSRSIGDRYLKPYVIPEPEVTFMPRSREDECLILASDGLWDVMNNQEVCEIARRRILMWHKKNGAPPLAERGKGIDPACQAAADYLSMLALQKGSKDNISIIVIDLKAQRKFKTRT
Source text: Compound 0428 can promote the interaction of the Arabidopsis protein phosphatase HAB1 with soybean GmPYL6 or rice OsPYL2, and this interaction is dose-dependent.
The construction method of recombinant plasmids for the Arabidopsis thaliana genes PYL1 (amino acid sequence 36-211), PYL2 (amino acid sequence 14-188) with dual tags of 6×His and SUMO sequence and the Arabidopsis thaliana gene HAB1 (amino acid sequence 172-511) with the Biotin tag sequence is described in detail in “A gate-latch-lock mechanism for hormone signaling by abscisic acid receptors” (Nature, Vol 462, 2009). The construction method of recombinant plasmids for PYR1 and PYL7 (whole gene coding sequence) and Soybean GmPYL6 and rice OsPYL2 with dual tags of 6×His and SUMO sequence is the same as that for Arabidopsis PYL2.
The above recombinant plasmid is transformed into competent cell of E. coli BL21 (DE3) (purchased from NEB company), and inoculated into 200 ml of LB liquid medium containing Amp resistance (purchased from OXOID company) and cultured overnight at 37° C. at 200 rpm; and inoculated into 2 L of LB liquid medium containing Amp resistance at a ratio of 1:50-1:100 for an extended culture, and cultured at 37° C., 200 rpm for 3-4 hours, and at a low temperature of 16° C. until OD600 is about 0.8-1.0. […]

corn = test: Soil drought experiment, corn; format: in vivo; conditions: 50 μM sprayed once a day for two days; 4 days of drought; FIG. 14b
Method: Soil drought experiments used for compound 0428 on soybean and maize were similar to that used for compound 0224 on soybeans, with only one plant contained in each pot. All soybean plants were long-day cultured at 26° C. Watering was stopped after the plant had three leaves in each of three groups and the plants with consistent growth were selected for drought treatment. As for corn, watering was stopped during the small bell-mouthed period for drought treatment. A solution containing 0.05% tween-20 and 50 μM (+)-0428 or 0.05% Tween-20 and 0.05% DMSO (control) was sprayed once on leaf surface on the first day and the second day of the drought, respectively, with a spray amount of 4 ml/pot. Meanwhile the pot position was also changed. The soybeans were re-watered 9 days after the drought, the corn was re-watered 4 days after the drought, and the photos were taken the next day.
In another group of experiments, soil drought experiments were performed on soybeans with three leaves in three groups or corn plants during the small trumpet period of the same size.

Structure (SMILES) | EC50 [1] [µM] | growth after drought and re-watering (corn)
CC1=CC(=O)CC(C)(C)[C@@]1(O)/C=C/C(C)=C\C(=O)O [ABA, Abscisic Acid, reference compound] | 0.149 | –
CCCN1C(=O)OCc2cc(NS(=O)(=O)Cc3c(F)c(F)c(C)c(F)c3F)ccc21 [Compound 0428] | – | significantly better growth after re-watering than that in the DMSO-sprayed control group

— US11076597B2, “High stress resistant plant growth regulator and preparation method and use thereof” (SHANGHAI INSTITUTES FOR BIOLOGICAL SCIENCES, CHINESE …, priority 2015, dated 2021)
